A short description of data set [1]: HPLC analysis of ginsenosides transported into the brain after oral administration. Format: in vivo, BALB/c mice. The settings on record: mice, oral mixture of Rb1, Re, Rd, Rg1, Rg3 10 mg/kg each, brain taken after six hours, HPLC (FIG. 22). On the procedure: Thus, the present inventor performed an HPLC analysis on brain tissue extract obtained from experimental animals administrated with mixture of five ginsenosides (Rb1, Rd, Re, Rg1 and Rg3) which are contained in RgC, in order to investigate whether RgC or ginsenosides Rd, Re and Rg3 can pass through the BBB. For the HPLC analysis of ginsenosides transported into the brain, a mixture of Rb1, Re, Rd, Rg1, and Rg3 (10 mg/kg each) was administered to ten-week-old male BALB/c mice (Central Lab. Animals, Korea). Brain tissues were isolated six hours after the oral administration of the ginsenosides after the complete perfusion with 0.9% saline solution, mechanically disrupted using a TissueLyser (Qiagen, Crawley, U.K.), and centrifuged for 10 min at 13500 rpm. The supernatant (1 mL) was then mixed with n-butanol (0.4 mL) and the butanol layer was completely evaporated and dried for HPLC analysis. The chromatography was performed by the Agilent 1100 series HPLC system (Agilent Technologies, USA) equipped with a vacuum degasser, quaternary pump, and ultraviolet (UV) detector. Chromatographic separation was performed on a Zorbax SB-Aq C18 column (4.6150 mm, 5 μm) and a mixture of solvent A (water) and solvent B (acetonitrile) flowed at a rate of 1 mL/min. The gradient elution program was initiated with 79% solvent A and 21% solvent B, 0-10 min (21-22% B), 10-11 min (22-23% B), 11-29 min (23-24% B), 29-34 min (24-30% B), 34-44 min (30-32% B), 44-49 min (32-50% B), 49-64 min (50-65% B), 64-78 min (65-100% B), and equilibrated with the initial gradient program (21% B) for 10 min prior to the next injection. The column temperature was set at 35° C., the volume of the sample injection was 10 μL, and detection wavelength was set at 203 nm. The animal experiments were approved by the Gangneung-Wonju National University Animal Care and Use Committee (Approval Number: GWNU-2013-23), and all procedures were conducted in accordance with the Guide for Care and Use of Laboratory Animals published by the National Institute of Health.

For the next data set, the system named is ChAT. The experiment in a line: ChAT mRNA expression in N2a cells (RT-PCR). In kind it is cell-based, mouse. To be noted: for expression of ChAT mRNA: single ginsenoside (FIG. 7A); for expression of ChAT, dose dependence: various concentrations (FIG. 7C). From the text: (§1) The present inventor reported that ChAT overexpressing human neural stem cells restored cognition with an increase of ACh levels in rat model (Park et al., Exp. Neurol., 234: 521-526, 2012). This implies that the increase of the ChAT level in cholinergic neurons plays a critical role in cognition enhancement and thus the cholinergic gene locus “VAChT/ChAT” can be a putative target for therapeutic approaches on AD. Thus the present inventor prepared transfected Neuro-2a (N2a) cells that over-express the human ChAT and APP (designated as “N2a.hChAT” and “N2a.hAPPswe”, respectively, FIG. 6) and the N2a.hChAT and N2a.hAPPswe cells were treated with the faction groups 1 to 5 isolated in the Example 3 at a centration of 50 μg/ml. Neuro-2a mouse neuroblastoma cells (Korean Cell Line Bank, Korea) were grown in DMEM supplemented with 10% fetal bovine serum (FBS), 100 U/m penicillin, and 100 μg/ml streptomycin (Invitrogen, USA) under 5% CO2 at 37° C. in tissue culture flasks. For all experiments, cells were grown to greater than 90% confluency and subjected to no more than 20 cell passages. The medium was changed every 2-3 days. Subconfluent cells were harvested and seeded at a density of 5×10^5 cells or 5×10^6 cells in poly-L-lysine-coated 35 mm or 60 mm culture plates. To recover the cells that are not completely saturated for analysis, poly-L-lysine coated 35 mm or 60 mm culture was seeded at a concentration of 5×10^5 or 5×10^6 cells on the plates. The extent of expression of hChAT and APP in the N2a.hChAT and N2a.hAAPswe cells treated with the faction groups 1 to 5 was quantified with RT-PCR using primers described in the below Table 2. At this time, beta-actin was used as an internal control.
(§2) Specifically, total RNA extracts from N2a cells were prepared using the Trizol method (Invitrogen, USA) and cDNA was synthesized from RNA by reverse transcription of 1 μg of total RNA using a reverse transcription system (Improm-II, Promega, USA) and oligo dT primers in a total volume of 20 μL. PCR amplification was performed using the primers described in Table 2 (Bioneer, Korea). Quantitative real-time PCR reactions were run on a Rotor-Gene 6000 (Corbett Research, Australia) using SensiMix™ SYBR Hi-ROX Kit (Bioline, U.K.) in 20 μL reaction mixtures. Each real-time-PCR master mix contained 10 μL 2× enzyme master mix, 7.0 μL RNase free water, 1 μL of each primer (10 pM each), and 1 μL diluted template. The PCR was performed with an initial pre-incubation step for 15 min at 95° C., followed by 45 cycles of 95° C. for 15 s, annealing at 52° C. for 15 s, and extension at 72° C. for 10 s. Melting curve analysis was used to confirm formation of the expected PCR product, and products from all assays were additionally tested with 1.2% agarose gel electrophoresis to confirm the correct lengths. An inter-run calibrator was used, and a standard curve was created for each gene to obtain PCR efficiencies. Relative sample expression levels were calculated using Rotor-Gene 6000 Series Software 1.7, and were expressed relative to β-actin and corrected for between-run variability. Data for the experimental samples were expressed as a fold unit the internal control gene.
(§3) In order to examine whether five ginsenosides affect the expression of ChAT related to the synthesis of acetylcholine and VAChT controlling extracellular secretion of acetylcholine, the present inventor analyzed the expression level of ChAT and VAChT after treating the five ginsenosides to N2a […] cells, respectively.

Another data set concerns VAChT. The experiment in a line: VAChT mRNA expression in N2a cells (RT-PCR). In kind it is cell-based, mouse. To be noted: for expression of VAChT mRNA: single ginsenoside (FIG. 7B); for expression of VAChT, dose dependence: various concentrations (FIG. 7D).
Excerpt: as §1, §2, §3

For another data set, the system named is TrkA. Put plainly: TrkA gene expression in N2a cells (quantitative RT-PCR). To be noted: 24 h, Rd 5 μg/ml, Re 5 μg/ml or Rd/Re each 2.5 μg/ml (FIG. 11). In kind it is cell-based, mouse. How it is done:
On the other hand, the present inventor investigates the expression level of TrkA gene after treating ginsenoside Rd (5 μg/ml), Re (5 μg/ml) or mixture of Rd/Re (each 2.5 μg/ml) to N2a cells for 24 h, using quantitative RT-PCR method, similar to the method described in the Example 4 (FIG. 11).

Results on three compounds are retold here after US20160022751A1, “NOVEL COMPOSITION FOR TREATING ALZHEIMER'S DISEASE AND IMPROVING COGNITIVE FUNCTION OF ALZHEIMER'S PATIENTS” (GANGNEUNG-WONJU NATIONAL UNIVERSITY INDUSTRY ACADEMY …, priority 2014, published 2016).

In the case of `CC(C)=CCC[C@](C)(O)[C@H]1CC[C@]2(C)[C@@H]1[C@H](O)C[C@@H]1[C@@]3(C)CC[C@H](O[C@@H]4O[C@H](CO)[C@@H](O)[C@H](O)[C@H]4O[C@@H]4O[C@H](CO)[C@@H](O)[C@H](O)[C@H]4O)C(C)(C)[C@@H]3CC[C@]12C` [ginsenoside Rg3], in data set [1], the “penetration into the brain (passage through BBB)” value (“penetration into the brain” for short) is “penetrated into the brain”. Further, the “expression of ChAT mRNA” value in the data set on ChAT is listed as “no significant increase”. Moreover, the “expression of VAChT mRNA” value with VAChT is “no significant increase”.
For the compound `CC(C)=CCC[C@](C)(O[C@@H]1O[C@H](CO)[C@@H](O)[C@H](O)[C@H]1O)[C@H]1CC[C@]2(C)[C@@H]1[C@H](O)C[C@@H]1[C@@]3(C)CC[C@H](O)C(C)(C)[C@@H]3[C@@H](O[C@@H]3O[C@H](CO)[C@@H](O)[C@H](O)[C@H]3O[C@@H]3O[C@@H](C)[C@H](O)[C@@H](O)[C@H]3O)C[C@]12C` [ginsenoside Re], the “expression of TrkA” value in the data set with TrkA is on record as “increased the expression of TrkA in a dose-dependent manner”. Moreover, in data set [1], the “penetration into the brain” value was “penetrated into the brain”. In the data set with ChAT, the “expression of ChAT mRNA” value is “significantly increased”; the “expression of ChAT, dose dependence” value was “increased expression of ChAT and VAChT in a dose-dependent manner”. In the data set with VAChT, the “expression of VAChT mRNA” value is “significantly increased”; the “expression of VAChT, dose dependence” value is “increased expression of ChAT and VAChT in a dose-dependent manner”.
With `CC(C)=CCC[C@](C)(O[C@@H]1O[C@H](CO)[C@@H](O)[C@H](O)[C@H]1O)[C@H]1CC[C@]2(C)[C@@H]1[C@H](O)C[C@@H]1[C@@]3(C)CC[C@H](O[C@@H]4O[C@H](CO)[C@@H](O)[C@H](O)[C@H]4O[C@@H]4O[C@H](CO)[C@@H](O)[C@H](O)[C@H]4O)C(C)(C)[C@@H]3CC[C@]12C` [ginsenoside Rd], in the data set on TrkA, the “expression of TrkA” value is listed as “increased the expression of TrkA in a dose-dependent manner”. Moreover, in data set [1], the “penetration into the brain” value is “penetrated into the brain”. In the data set on ChAT, the “expression of ChAT mRNA” value is “significantly increased”; the “expression of ChAT, dose dependence” value is “increased expression of ChAT and VAChT in a dose-dependent manner”. For the same compound, in the data set on VAChT, the “expression of VAChT mRNA” value is reported as “significantly increased”; the “expression of VAChT, dose dependence” value was “increased expression of ChAT and VAChT in a dose-dependent manner”.
